Laboratory results from publication PMC6217552, “Refining the structure−activity relationships of 2-phenylcyclopropane carboxylic acids as inhibitors of O-acetylserine sulfhydrylase isoforms” (Journal of Enzyme Inhibition and Medicinal Chemistry, 2018).
In brackets after ≈: the same amount, converted by molar mass. Entries after “also recorded” stand apart in the source; their conditions may differ.

What was measured:
[1] = target: T1, StOASS-B (Salmonella typhimurium, UniProt P29848); set-up: method as in PMID 28821763; settings: low affinity active site binder; read-out: Kd for OASS-B; cited from earlier work
T1 construct: made in house; host or cells: E. coli
T1 sequence (P29848 1-303): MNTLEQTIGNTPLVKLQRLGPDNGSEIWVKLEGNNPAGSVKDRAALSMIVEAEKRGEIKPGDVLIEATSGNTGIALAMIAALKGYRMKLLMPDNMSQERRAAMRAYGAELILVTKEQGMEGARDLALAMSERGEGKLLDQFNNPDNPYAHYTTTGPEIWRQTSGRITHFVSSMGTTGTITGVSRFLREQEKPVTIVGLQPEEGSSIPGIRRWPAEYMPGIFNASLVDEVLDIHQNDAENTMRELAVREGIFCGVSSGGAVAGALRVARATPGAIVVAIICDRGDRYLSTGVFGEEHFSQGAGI

[2] = target: T2, StOASS-A (Salmonella typhimurium, UniProt P0A1E3); test: Steady-state enzyme activity assay, discontinuous ninhydrin cysteine determination; type: biochemical, Salmonella enterica serovar Typhimurium; settings: value in brackets in IC50 column
T2 construct: made in house; host or cells: E. coli
Method: (§1) StOASS-A and StOASS-B, expressed in E. coli, were purified by metal affinity chromatography as described previously. Proteins were more that 95% pure based on SDS-PAGE analysis (data not shown).
(§2) Enzyme activity under steady-state conditions was measured by a discontinuous method as described previously. Briefly, the reaction was carried out in 100 mM HEPES pH 7.0 in the presence of 6 nM OASS, 60 nM BSA to prevent enzyme adhesion to tube wall, 1 mM OAS (equal to the K m value of this subsrate), 0.6 mM Na2S (a saturating concentration), 1% DMSO and variable concentrations of inhibitor. Reaction was stopped at time intervals by the addition of acetic acid and concentration of cysteine was determined by a modification of the ninhydrin assay. The fractional velocity as a function of inhibitor concentration was determined and IC50 was calculated by the following equation: vi/v0=1/1+(I/IC50) where, v 0 is the reaction velocity in the absence of inhibitor and v i is reaction velocity in the presence of inhibitor at concentration [I].
(§3) For a competitive inhibitor against OAS the IC50 measured under these conditions is about 2⋅K d.

[3] = target: T1, StOASS-B; test: as above; type: biochemical; settings: value in brackets in IC50 column
Method: as §1, §2, §3

[4] = target: T3, OASS-B (Salmonella typhimurium, UniProt P29848); test: Fluorescence competitive binding assay (displacement of 1-ethylcyclopropane-1,2-dicarboxylic acid); settings: 200 µM 1-ECP-1,2-DCA, 190-200 µM compound, 100 mM Hepes, 1% DMSO, pH 7, 20 °C
T3 construct: made in house; host or cells: E. coli
T3 sequence (P29848 1-303): T1 sequence (P29848 1-303)
Method: Ligand affinity was measured by direct fluorimetric titrations, monitoring the fluorescence emission spectrum of cofactor PLP upon excitation at 412 nm. 0.1–1 µM OASS was titrated by increasing concentrations of ligand in 100 mM HEPES pH 7.0, 1% DMSO, at 20 °C. The dependence of fluorescence emission intensity on the concentration of compound was fitted to a binding isotherm: I=I0+ΔI·[ligand]/Kd+[ligand] where, I is the fluorescence emission intensity at a given ligand concentration, I 0 is the fluorescence emission intensity in the absence of ligand, ΔI is the amplitude and K d is the dissociation constant. When the K d was lower than the concentration of the protein used in the assay, the dependence of the fluoresecnce emission intensity on ligand concentration was fitted to a quadratic equation that describes tight binding. The fluorescence competitive binding assay, described elsewhere, was used to evaluate whether compounds bind at the active site of the enzyme or to an allosteric site. […] Binding of a higher affinity compound to the active site displaces 1-ethylcyclopropane-1,2-dicarboxylic acid and leads to a decrease in the fluorescence emission intensity.
Figure 3. […] Fluorescence emission spectra upon excitation at 412 nm were collected in the absence and presence of 200 µM 1-ethylcyclopropane-1,2-dicarboxylic acid (1-ECP-1,2-DCA). […]

[5] = Solubility limit in the buffer used for activity assays; type: physicochemical; settings: aqueous buffer
Description: It is possible to conclude that expansion of the series towards the para position of the phenyl ring, unless carried out with small groups, is detrimental for the activity of the compounds. […] Even though the carboxylic acid group is essential for the binding to OASS[13] ^, [27] ^, [28], its scarce diffusion across biological membranes is a well-known issue[32] ^, [33]. Therefore, to preserve the key interactions with the target, we carried out the replacement of the carboxylic acid by several isosters (Scheme 2). […] This prompted us to further investigate the mechanism of inhibition of these molecules, since the residual activity at saturating concentrations is significant (about 40 − 50%, Figure 3, panel A). […] This hampers the accurate determination of the inhibition mechanism due to limitations to the range of inhibitor concentration that can be explored. However, since partial inhibition is a typical feature of allosteric inhibitors, we used a method developed by our group[24] to assess if compound 25 is able to displace a low affinity active site binder, 1-ethylcyclopropane-1,2-dicarboxylic acid, that forms a highly fluorescent complex with OASS. […] This is a strong indication that compound 25 is not able to compete for binding to the active site with 1-ethylcyclopropane-1,2-dicarboxylic acid. […]

[6] = system: Escherichia coli ATCC25922; test: Minimal inhibitory concentration (CLSI) in medium with limiting cysteine; type: cell-based; settings: E. coli ATCC25922, medium with limiting cysteine; data not shown
Method: Minimal inhibitory concentration assays were performed according to the CLSI guidelines (Clinical and Laboratory Standards Institute; Performance Standards for Antimicrobial Susceptibility Testing; Twenty-Fourth Informational Supplement; CLSI document M100-S24, CLSI; 2014.). The compounds were dissolved in DMSO to obtain a stock solution 100-fold more concentrated than the desired higher concentration and then 10 serial dilutions were performed. One microliter of each dilution was transferred to the microtiter plate.
Escherichia coli ATCC25922 was grown until log phase on liquid Mueller–Hinton broth at 37 °C in a shaker at 225 rpm. Bacterial suspension was then centrifuged at 2500 rpm for 15 min and diluted with phosphate buffer to obtain a solution with a turbidity of about 0.5 McFarland. Bacterial suspension was further diluted (1:100) with fresh LB 20%. Fifty microliters of the bacterial suspension containing 10^6 CFU/mL were inoculated into each well, to obtain a final concentration of 5 × 10^5 CFU/mL. Each plate contained growth control wells and sterility check wells.
We investigated the ability of the new set of compounds to interfere with bacterial growth.

T2 sequence (P0A1E3 whole entry): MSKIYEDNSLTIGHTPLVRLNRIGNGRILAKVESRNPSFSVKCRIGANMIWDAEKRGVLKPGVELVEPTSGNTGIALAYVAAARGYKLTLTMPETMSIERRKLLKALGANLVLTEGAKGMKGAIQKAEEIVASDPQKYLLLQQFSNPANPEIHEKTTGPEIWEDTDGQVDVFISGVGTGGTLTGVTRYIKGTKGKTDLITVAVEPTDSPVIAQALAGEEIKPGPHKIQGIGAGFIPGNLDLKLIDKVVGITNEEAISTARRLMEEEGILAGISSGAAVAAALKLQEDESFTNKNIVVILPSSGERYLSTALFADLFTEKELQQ

SMILES | Kd [1] | OASS-A percent inhibition measured at saturation of inhibitor or at the highest inhibitor concentration allowed by solubility [2] | OASS-B percent inhibition measured at saturation of inhibitor or at the highest inhibitor concentration allowed by solubility [3] | Displacement of 1-ethylcyclopropane-1,2-dicarboxylic acid from OASS-B [4] | solubility [5] | Interference with bacterial growth (MIC) [6]
CCC1(C(=O)O)CC1C(=O)O (stereo not drawn) [1-ethylcyclopropane-1,2-dicarboxylic acid] | 170 µM |  |  |  |  | 
Cc1ccc(C[C@]2(NS(=O)(=O)c3ccc(C)cc3)C[C@H]2c2ccccc2)cc1 [Compound 25, (1R,2S)-4-methyl-N-(1-(4-methylbenzyl)-2-phenylcyclopropyl)benzenesulfonamide] |  | 39% | 35% | unable to displace the compound up to an equimolar concentration of about 200 μM; also recorded: does not change the emission spectrum | ~50 µM (≈ 19.6 µg/mL) | 
Cc1ccc(C[C@]2(NS(C)(=O)=O)C[C@H]2c2ccccc2)cc1 [Compound 24, (1R,2S)-1-N-(1-(4-methylbenzyl)-2-phenylcyclopropyl)methanesulfonamide] |  | 45% | 50% |  | ~250 µM (≈ 78.9 µg/mL) | none of the synthesised compounds was able to interfere significantly with bacterial growth
